Results: ChEMBL document CHEMBL3632622, “Synthesis and biological evaluation of novel N-phenyl ureidobenzenesulfonate derivatives as potential anticancer agents. Part 2. Modulation of the ring B” (Eur J Med Chem, 2015)
Calls of active or inactive are those of the source. No cut-off for these calls is given here.

Assays:
[1] = Antiproliferative activity against human HT1080 cells assessed as growth inhibition incubated for 48 hrs by sulforhodamine B assay; format: functional, cell-based, HT-1080; conditions: Homo sapiens, HT-1080, 48 h; read-out: IC50
M21 [2] = assay: Antiproliferative activity against human M21 cells assessed as growth inhibition incubated for 48 hrs by sulforhodamine B assay; format: functional, cell-based; conditions: M21, 48 h
HT-29 = assay: Antiproliferative activity against human HT-29 cells assessed as growth inhibition incubated for 48 hrs by sulforhodamine B assay; format: functional, cell-based; conditions: HT-29, 48 h
MCF7 = assay: Antiproliferative activity against human MCF7 cells assessed as growth inhibition incubated for 48 hrs by sulforhodamine B assay; format: functional, cell-based; conditions: MCF7, 48 h
M21 [3] = assay: Cell cycle arrest in human M21 cells assessed as accumulation at subG1 phase at 48 uM after 24 hrs by DAPI staining-based flow cytometry (reference value: 1.5%); format: functional
M21 [4] = assay: Cell cycle arrest in human M21 cells assessed as accumulation at G0/G1 phase at 48 uM after 24 hrs by DAPI staining-based flow cytometry (reference value: 65.1%); format: functional
M21 [5] = assay: Cell cycle arrest in human M21 cells assessed as accumulation at S phase at 48 uM after 24 hrs by DAPI staining-based flow cytometry (reference value: 17.4%); format: functional
M21 [6] = assay: Cell cycle arrest in human M21 cells assessed as accumulation at G2/M phase at 48 uM after 24 hrs by DAPI staining-based flow cytometry (reference value: 16%); format: functional
M21 [7] = assay: Cell cycle arrest in human M21 cells assessed as accumulation at subG1 phase at 5.1 uM after 24 hrs by DAPI staining-based flow cytometry (reference value: 1.5%); format: functional
M21 [8] = assay: Cell cycle arrest in human M21 cells assessed as accumulation at G0/G1 phase at 5.1 uM after 24 hrs by DAPI staining-based flow cytometry (reference value: 65.1%); format: functional
M21 [9] = assay: Cell cycle arrest in human M21 cells assessed as accumulation at S phase at 5.1 uM after 24 hrs by DAPI staining-based flow cytometry (reference value: 17.4%); format: functional
M21 [10] = assay: Cell cycle arrest in human M21 cells assessed as accumulation at G2/M phase at 5.1 uM after 24 hrs by DAPI staining-based flow cytometry (reference value: 16%); format: functional
M21 [11] = assay: Cell cycle arrest in human M21 cells assessed as accumulation at G0/G1 phase at 1.5 uM after 24 hrs by DAPI staining-based flow cytometry (reference value: 65.1%); format: functional
M21 [12] = assay: Cell cycle arrest in human M21 cells assessed as accumulation at S phase at 1.5 uM after 24 hrs by DAPI staining-based flow cytometry (reference value: 17.4%); format: functional
M21 [13] = assay: Cell cycle arrest in human M21 cells assessed as accumulation at G2/M phase at 1.5 uM after 24 hrs by DAPI staining-based flow cytometry (reference value: 16%); format: functional
M21 [14] = assay: Cell cycle arrest in human M21 cells assessed as accumulation at subG1 phase at 1.5 uM after 24 hrs by DAPI staining-based flow cytometry (reference value: 1.5%); format: functional
M21 [15] = assay: Induction DNA DSBs in human M21 cells assessed as increase in gamma H2AX foci at 0.75 uM incubated for 24 hrs by DAPI staining based immunocytochemistry; format: cell-based
M21 [16] = assay: Cell cycle arrest in human M21 cells assessed as accumulation at G0/G1 phase at 5.9 uM after 24 hrs by DAPI staining-based flow cytometry (reference value: 65.1%); format: functional
M21 [17] = assay: Cell cycle arrest in human M21 cells assessed as accumulation at S phase at 5.9 uM after 24 hrs by DAPI staining-based flow cytometry (reference value: 17.4%); format: functional
M21 [18] = assay: Cell cycle arrest in human M21 cells assessed as accumulation at G2/M phase at 5.9 uM after 24 hrs by DAPI staining-based flow cytometry (reference value: 16%); format: functional
M21 [19] = assay: Cell cycle arrest in human M21 cells assessed as accumulation at subG1 phase at 5.9 uM after 24 hrs by DAPI staining-based flow cytometry (reference value: 1.5%); format: functional
M21 [20] = assay: Induction DNA DSBs in human M21 cells assessed as increase in gamma H2AX foci at 15 uM incubated for 24 hrs by DAPI staining based immunocytochemistry; format: cell-based
M21 [21] = assay: Cell cycle arrest in human M21 cells assessed as accumulation at G0/G1 phase at 2.6 uM after 24 hrs by DAPI staining-based flow cytometry (reference value: 65.1%); format: functional
M21 [22] = assay: Cell cycle arrest in human M21 cells assessed as accumulation at S phase at 2.6 uM after 24 hrs by DAPI staining-based flow cytometry (reference value: 17.4%); format: functional
M21 [23] = assay: Cell cycle arrest in human M21 cells assessed as accumulation at G2/M phase at 2.6 uM after 24 hrs by DAPI staining-based flow cytometry (reference value: 16%); format: functional
M21 [24] = assay: Cell cycle arrest in human M21 cells assessed as accumulation at subG1 phase at 2.6 uM after 24 hrs by DAPI staining-based flow cytometry (reference value: 1.5%); format: functional
M21 [25] = assay: Cell cycle arrest in human M21 cells assessed as accumulation at G0/G1 phase at 5.4 uM after 24 hrs by DAPI staining-based flow cytometry (reference value: 65.1%); format: functional
M21 [26] = assay: Cell cycle arrest in human M21 cells assessed as accumulation at S phase at 5.4 uM after 24 hrs by DAPI staining-based flow cytometry (reference value: 17.4%); format: functional
M21 [27] = assay: Cell cycle arrest in human M21 cells assessed as accumulation at G2/M phase at 5.4 uM after 24 hrs by DAPI staining-based flow cytometry (reference value: 16%); format: functional
M21 [28] = assay: Cell cycle arrest in human M21 cells assessed as accumulation at subG1 phase at 5.4 uM after 24 hrs by DAPI staining-based flow cytometry (reference value: 1.5%); format: functional
M21 [29] = assay: Induction DNA DSBs in human M21 cells assessed as increase in gamma H2AX foci at 5.4 uM incubated for 24 hrs by DAPI staining based immunocytochemistry; format: cell-based

For O=C(NCCCl)Nc1ccc(S(=O)(=O)Oc2ccc(F)cc2F)cc1, the IC50 [1] was 9400 nM, the IC50 (M21 [2]) was 9600 nM and the IC50 (HT-29) was 9600 nM. It also gave an IC50 (MCF7) of 9300 nM, an Activity (M21 [3]) of 5.2% and an Activity (M21 [4]) of 13.4%. It also gave an Activity (M21 [5]) of 10% and an Activity (M21 [6]) of 71.4%.
O=C(NCCCl)Nc1ccc(S(=O)(=O)Oc2cc(Cl)c(Cl)cc2Cl)cc1 gave an IC50 [1] of 1400 nM, an IC50 (M21 [2]) of 1000 nM and an IC50 (HT-29) of 1200 nM. It also gave an IC50 (MCF7) of 1200 nM, an Activity (M21 [7]) of 5.5% and an Activity (M21 [8]) of 3.3%. The Activity (M21 [9]) was 8.6% and the Activity (M21 [10]) was 82.6%.
For CC[C@@]1(O)C(=O)OCc2c1cc1n(c2=O)Cc2cc3c(CN(C)C)c(O)ccc3nc2-1 [TOPOTECAN], the IC50 [1] was 180 nM, the IC50 (M21 [2]) was 1400 nM and the IC50 (HT-29) was 230 nM. For the same molecule, the IC50 (MCF7) was 24 nM, the Activity (M21 [11]) was 6.4% and the Activity (M21 [12]) was 31.8%. The Activity (M21 [13]) was 60.4%, the Activity (M21 [14]) was 1.4% and the Activity (M21 [15]) was “Active”.
In the case of O=C(NCCCl)Nc1ccc(S(=O)(=O)Oc2ccccc2[N+](=O)[O-])cc1, the IC50 [1] is reported as 2400 nM, the IC50 (M21 [2]) is reported as 3900 nM and the IC50 (HT-29) is reported as 5700 nM. It also gave an IC50 (MCF7) of 7400 nM, an Activity (M21 [16]) of 32.5% and an Activity (M21 [17]) of 43%. The Activity (M21 [18]) was 23.1%, the Activity (M21 [19]) was 1.4% and the Activity (M21 [20]) was “Active”.
For CCCc1ccccc1OS(=O)(=O)c1ccc(NC(=O)NCCCl)cc1, the IC50 [1] was 1900 nM, the IC50 (M21 [2]) was 1300 nM and the IC50 (HT-29) was 1900 nM. The IC50 (MCF7) was 2100 nM, the Activity (M21 [21]) was 36% and the Activity (M21 [22]) was 37%. The Activity (M21 [23]) was 25.7% and the Activity (M21 [24]) was 1.3%.
Molecule Cc1ccccc1OS(=O)(=O)c1ccc(NC(=O)NCCCl)cc1 has an IC50 [1] of 1600 nM, an IC50 (M21 [2]) of 4500 nM and an IC50 (HT-29) of 4900 nM. The IC50 (MCF7) was 6100 nM, the Activity (M21 [25]) was 39.2% and the Activity (M21 [26]) was 39%. For the same molecule, the Activity (M21 [27]) was 19.5%, the Activity (M21 [28]) was 2.3% and the Activity (M21 [29]) was “Active”.
